Reference: patent US20070093476A1, “Novel compounds and their use in medicine,as antidiabetic and hypolipidemic agents, process for their preparation and pharmaceutical compositions containing them” (priority 2003, published 2007)
Where a name gives a salt, the structure may show the parent alone.

Test system: not given
Test: not given
Conditions: not given

Compound | melting point
CCOC(Cc1ccc(NCCCN2CCc3ccccc32)cc1)C(=O)O (stereo not drawn) (as salt: salt) [Example 52, 2-Ethoxy-3-[4-{3-2,3-dihydroindol-1-yl)propylamino}phenyl]propanoic acid Arginine salt] | 130 to 132 °C
CC(C)(Oc1ccc(NCc2ccc3cc(OS(C)(=O)=O)ccc3c2)cc1)C(=O)O [Example 26, 2-Methyl-2-[4-(6-methanesulfonyloxynapth-2-ylmethylamino}phenoxy]propanoic acid] | 182 to 184 °C
CC(C)(Oc1ccc(CCCOc2ccc(-c3ccccc3)cc2)cc1)C(=O)O [Example 63, 2-{4-[3-(Biphenyl-4-yloxy)-propyl]-phenoxy}-2-methyl-propanoic acid] | 130 to 133 °C
CCOC(CCCc1ccc(NCc2ccc3cc(OS(C)(=O)=O)ccc3c2)cc1)C(=O)O (stereo not drawn) (as salt: salt) [Example 46, 2-Ethoxy-5-[4-{6-methanesulfonyloxynapth-2-ylmethylamino}phenyl]pentatonic acid Arginine salt] | 118 to 120 °C
CCOC(Cc1ccc(NCC2CCc3cc(OS(C)(=O)=O)ccc3C2)cc1)C(=O)O (stereo not drawn) (as salt: salt) [Example 53, 2-Ethoxy-3-[4-{(6-methanesulfonyloxy-1,2,3,4-tetrahydronapth-2-yl)methylamino}phenyl]propanoic acid Arginine salt] | 96 to 98 °C
CC(C)(Oc1cccc(CCCOc2ccc(OS(C)(=O)=O)cc2)c1)C(=O)O [Example 42, 2-Methyl-2-[3-{3-(4-methanesulfonyloxyphenoxy)propyl}phenoxy]propanoic acid] | 93 to 95 °C
CCOC(Cc1ccc(NCCCN2CCCc3ccccc32)cc1)C(=O)O (stereo not drawn) (as salt: salt) [Example 55, 2-Ethoxy-3-[4-{3-1,2,3,4-tetrahydroquinolyn-1-yl)propylamino}phenyl]propanoic acid Arginine salt] | 134 to 136 °C
CO[C@@H](Cc1ccc(NCCCn2ccc3ccccc32)cc1)C(=O)O (as salt: salt) [Example 48, (S)-2-Methoxy-3-[4-{3-(indol-1-yl)propylamino}phenyl]propanoic acid Arginine salt] | 105 °C
CC(C)(C)OC(=O)Nc1ccc(OCCCc2ccc(OC(C)(C)C(=O)O)cc2)cc1 [Example 96, 2-Methyl-2-[4-{3-(4-(tert-butyloxycarbonylamino)phenoxy)propyl}phenoxy]propanoic acid] | 132 to 134 °C
CC(C)(Oc1ccc(OCc2ccc3cc(OS(C)(=O)=O)ccc3c2)cc1)C(=O)O [Example 37, 2-Methyl-2-[4-{6-methanesulfonyloxynapth-2-ylmethoxy}phenoxy]propanoic acid] | 147 to 149 °C
CO[C@@H](Cc1ccc(NCCCn2ccc3cc(OS(C)(=O)=O)ccc32)cc1)C(=O)O (as salt: salt) [Example 50, (S)-2-Methoxy-3-[4-{3-(5-methanesulfonyloxyindol-1-yl)propylamino}phenyl]propanoic acid Arginine salt] | 102 to 104 °C
CC(C)(Oc1ccc(CCCOc2ccc(NS(C)(=O)=O)cc2)cc1)C(=O)O [Example 97, 2-Methyl-2-[4-{3-(4-(methanesulfonylamino)phenoxy)propyl}phenoxy]propanoic acid] | 122 to 124 °C
CCOC(=O)C(C)(C)Oc1ccc(NCc2ccc3cc(OS(C)(=O)=O)ccc3c2)cc1 [Example 4, Ethyl 2-methyl-2-[4-{6-methanesulfonyloxynapth-2-ylmethylamino}phenoxy]propanoate] | 116 to 118 °C
CCO[C@@H](Cc1ccc(NCCCn2ccc3cc(OS(C)(=O)=O)ccc32)cc1)C(=O)O (as salt: salt) [Example 49, (S)-2-Ethoxy-3-[4-{3-(5-methanesulfonyloxyindol-1-yl)propylamino}phenyl]propanoic acid Arginine salt] | 102 to 104 °C
CCOC(Cc1ccc(NCCCC2CCc3cc(OS(C)(=O)=O)ccc3C2)cc1)C(=O)O (stereo not drawn) (as salt: salt) [Example 54, 2-Ethoxy-3-[4-{3-(6-methanesulfonyloxy-1,2,3,4-tetrahydronapth-2-yl)propylamino}phenyl]propanoic acid Arginine salt] | 115 to 117 °C
CCOC(Cc1ccc(NCCCn2ccc3ccccc32)cc1)C(=O)O (stereo not drawn) (as salt: salt) [Example 47, 2-Ethoxy-3-[4-{3-(indol-1-yl)propylamino}phenyl]propanoic acid Arginine salt] | 130 °C

Test system: Swiss albino mice
Test: Plasma triglyceride lowering activity in Swiss albino mice
Format: in vivo
Conditions: Mus musculus, 144 h; Swiss albino mice, 3 mg/kg/d oral, 6 days; read-out: % of Reduction in Triglyceride
Procedure: b) Plasma Triglyceride and Total Cholesterol Lowering Activity in Swiss Albino Mice and Guinea Pigs
Male Swiss albino mice (SAM) and male Guinea pigs are obtained from NIN and housed in DRF animal house. All these animals are maintained under 12 hour light and dark cycle at 25±1° C. Animals are given standard laboratory chow (NIN, Hyderabad, India) and water, ad libitum. SAM of 20-25 g body weight range and Guinea pigs of 500-700 g body weight range are used (Oliver, P., Plancke, M. O., Marzin, D., Clavey, V., Sauzieres, J and Fruchart, J. C. Effects of fenofibrate, gemfibrozil and nicotinic acid on plasma lipoprotein levels in normal and hyperlipidemic mice. Atherosclerosis. 1988. 70 : 107-114).
The test compounds can be administered orally to Swiss albino mice at 0.3 to 30 mg/kg/day dose for 6 days. Control mice are treated with vehicle (0.25% Carboxymethylcellulose; dose 10 ml/kg). The test compounds are administered orally to Guinea pigs at 0.3 to 30 mg/kg/day dose for 6 days. Control animals are treated with vehicle (0.25% Carboxymethylcellulose; dose 5 ml/kg).
The blood samples can be collected in fed state 1 hour after drug administration on 0 and 6 day of treatment. The blood can be collected from the retro-orbital sinus through heparinised capillary in EDTA containing tubes. After centrifugation, plasma sample was separated for triglyceride and total cholesterol (Wieland, O. Methods of Enzymatic analysis. Bergermeyer, H. O., Ed., 1963. 211-214; Trinder, P. Ann. Clin. Biochem. 1969. 6 : 24-27). Measurement of plasma triglyceride, total cholesterol and HDL are done using commercial kits (Dr. Reddy's Diagnostic Division, Hyderabad, India).

Compound | inhibition in vivo at 3 mg/kg/day
CC(C)(Oc1ccc(NCc2ccc3cc(OS(C)(=O)=O)ccc3c2)cc1)C(=O)O [Example 26, 2-Methyl-2-[4-(6-methanesulfonyloxynapth-2-ylmethylamino}phenoxy]propanoic acid] | 10%
CC(C)(Oc1ccc(OCc2ccc3cc(OS(C)(=O)=O)ccc3c2)cc1)C(=O)O [Example 37, 2-Methyl-2-[4-{6-methanesulfonyloxynapth-2-ylmethoxy}phenoxy]propanoic acid] | 30%

Same assay, conditions: Mus musculus, po, 144 h, read-out: % of Reduction in Triglyceride

Compound | inhibition in vivo at 3 mg/kg/day
CCOC(Cc1ccc(NCCCC2CCc3cc(OS(C)(=O)=O)ccc3C2)cc1)C(=O)O (stereo not drawn) [Example 54, 2-Ethoxy-3-[4-{3-(6-methanesulfonyloxy-1,2,3,4-tetrahydronapth-2-yl)propylamino}phenyl]propanoic acid Arginine salt] | 43%

Same assay, conditions: Swiss albino mice, 3 mg/kg/d oral, 6 days

Compound | % of Reduction in Triglyceride
2-Methyl-2-[3-{3-(3-methanesulfonyloxyphenoxy)propyloxy}phenoxy]propanoic acid Arginine salt [Example 61] | 51%
2-Methyl-2-[3-{3-(4-methanesulfonyloxyphenoxy)propyloxy}phenoxy]propanoic acid Arginine salt [Example 66] | 71%
